According to ChEMBL document CHEMBL5120772, “Discovery of ASP5878: Synthesis and structure-activity relationships of pyrimidine derivatives as pan-FGFRs inhibitors with improved metabolic stability and suppressed hERG channel inhibitory activity” (Bioorg Med Chem, 2022):

Tests used:
NIH3T3 = assay: Cytotoxicity against mouse NIH/3T3 cells overexpressing FGFR3 S249C assessed as cell growth inhibition incubated for 5 days by CellTitre-Glo assay; details: NIH3T3, 120 h
[1] = Intrinsic clearance in human liver microsomes
[2] = Permeability of the compound in aqueous buffer at pH 6.5 incubated for 2 hrs by PAMPA based HPLC analysis
[3] = Lipophilicity, logD of the compound in 1-octanol and phosphate buffer at pH 7.4 by LC-MS analysis
[4] = target: Voltage-gated inwardly rectifying potassium channel KCNH2 (Homo sapiens, UniProt Q12809); assay: Inhibition of hERG channel expressed in CHO cells at -80 mV holding potential by Qpatch clamp method
[5] = Plasma concentration in ICR mouse at 30 mg/kg, po measured after 6 hrs of administration by LC-MS/MS analysis; type: ADME, organism-based
[6] = Ratio of drug concentration in brain to plasma (Kp,brain) in Sprague-Dawley rat at 1 mg/kg, po measured after 1 hr
[7] = Ratio of drug concentration in brain to plasma (Kp,brain) in Sprague-Dawley rat at 1 mg/kg, po measured after 4 hrs
[8] = Ratio of drug concentration in brain to plasma (Kp,brain) in Sprague-Dawley rat at 1 mg/kg, po measured after 24 hrs
[9] = target: Fibroblast growth factor receptor 3 (Homo sapiens, UniProt P22607); assay: Inhibition of wild type N-terminal GST tagged FGFR3 (436 to 806 residues) (unknown origin) expressed in sf21 insect cells preincubated for 30 mins followed by substrate addition and measured after 30 mins in presence of ATP by off-chip mobility shift assay
animal or person = details: Mus musculus, Balb/c, NIH3T3, po, 6 h, read-out: INH
[10] = dog, in vivo, po, 100 mg/kg, 72 h
[11] = AUCinfinity in Beagle dog at 0.1 mg/kg, iv measured up to 72 hrs by LC-MS/MS analysis; details: in vivo
hERG [12] = target: T1, hERG (Homo sapiens, UniProt Q12809); assay: Inhibition of hERG in HEK293 cells assessed as mean compensated suppression rate at 10 uM incubated for 13 mins by whole cell patch clamp assay relative to control; details: HEK293 cells expressing hERG
in vivo [13] = details: beagle, dog, po, 10 mg/kg
[14] = Volume of distribution at steady state in Beagle dog at 0.1 mg/kg, iv measured up to 72 hrs by LC-MS/MS analysis; details: in vivo
in vivo [15] = details: beagle, dog, po, 1 mg/kg
in vivo [16] = details: beagle, dog, po, 0.1 mg/kg
in vivo [17] = details: Sprague-Dawley, rat, po, 0.3 mg/kg
in vivo [18] = details: beagle, dog, po, 100 mg/kg
in vivo [19] = details: Sprague-Dawley, rat, po, 0.3 mg/kg; remark: listed apart in the source
[20] = Half-life in Sprague-Dawley rat at 0.3 mg/kg, iv measured up to 24 hrs by LC-MS/MS analysis; details: in vivo
hERG [21] = target: T1, hERG; assay: Inhibition of hERG in HEK293 cells assessed as mean compensated suppression rate at 3 uM incubated for 13 mins by whole cell patch clamp assay relative to control; details: HEK293 cells expressing hERG
[22] = dog, in vivo, po, 10 mg/kg, 72 h
hERG [23] = target: T1, hERG; assay: Inhibition of hERG in HEK293 cells assessed as mean compensated suppression rate at 1 uM incubated for 13 mins by whole cell patch clamp assay relative to control; details: HEK293 cells expressing hERG
in vivo [24] = details: beagle, dog, iv, 0.1 mg/kg
[25] = dog, in vivo, po, 10 mg/kg, 72 h; remark: listed apart in the source
[26] = Half-life in Beagle dog at 0.1 mg/kg, iv measured up to 72 hrs by LC-MS/MS analysis; details: in vivo
[27] = Volume of distribution at steady state in Sprague-Dawley rat at 0.3 mg/kg, iv measured up to 24 hrs by LC-MS/MS analysis; details: in vivo
in vivo [28] = details: beagle, dog, po, 100 mg/kg; remark: listed apart in the source
in vivo [29] = details: Sprague-Dawley, rat, po, 0.3 mg/kg; remark: listed apart in the source
in vivo [30] = details: Sprague-Dawley, rat, iv, 0.3 mg/kg
[31] = AUCinfinity in Sprague-Dawley rat at 0.3 mg/kg, iv measured up to 24 hrs by LC-MS/MS analysis; details: in vivo
in vivo [32] = details: beagle, dog, po, 1 mg/kg; remark: listed apart in the source
in vivo [33] = details: beagle, dog, po, 0.1 mg/kg; remark: listed apart in the source
in vivo [34] = details: beagle, dog, po, 1 mg/kg; remark: listed apart in the source
[35] = AUCinfinity in Beagle dog at 0.1 mg/kg, po measured upto 72 hrs by LC-MS/MS analysis; details: in vivo
in vivo [36] = details: beagle, dog, po, 0.1 mg/kg; remark: listed apart in the source
[37] = AUCinfinity in Sprague-Dawley rat at 0.3 mg/kg, po measured upto 24 hrs by LC-MS/MS analysis; details: in vivo

T1 sequence (Q12809 whole entry): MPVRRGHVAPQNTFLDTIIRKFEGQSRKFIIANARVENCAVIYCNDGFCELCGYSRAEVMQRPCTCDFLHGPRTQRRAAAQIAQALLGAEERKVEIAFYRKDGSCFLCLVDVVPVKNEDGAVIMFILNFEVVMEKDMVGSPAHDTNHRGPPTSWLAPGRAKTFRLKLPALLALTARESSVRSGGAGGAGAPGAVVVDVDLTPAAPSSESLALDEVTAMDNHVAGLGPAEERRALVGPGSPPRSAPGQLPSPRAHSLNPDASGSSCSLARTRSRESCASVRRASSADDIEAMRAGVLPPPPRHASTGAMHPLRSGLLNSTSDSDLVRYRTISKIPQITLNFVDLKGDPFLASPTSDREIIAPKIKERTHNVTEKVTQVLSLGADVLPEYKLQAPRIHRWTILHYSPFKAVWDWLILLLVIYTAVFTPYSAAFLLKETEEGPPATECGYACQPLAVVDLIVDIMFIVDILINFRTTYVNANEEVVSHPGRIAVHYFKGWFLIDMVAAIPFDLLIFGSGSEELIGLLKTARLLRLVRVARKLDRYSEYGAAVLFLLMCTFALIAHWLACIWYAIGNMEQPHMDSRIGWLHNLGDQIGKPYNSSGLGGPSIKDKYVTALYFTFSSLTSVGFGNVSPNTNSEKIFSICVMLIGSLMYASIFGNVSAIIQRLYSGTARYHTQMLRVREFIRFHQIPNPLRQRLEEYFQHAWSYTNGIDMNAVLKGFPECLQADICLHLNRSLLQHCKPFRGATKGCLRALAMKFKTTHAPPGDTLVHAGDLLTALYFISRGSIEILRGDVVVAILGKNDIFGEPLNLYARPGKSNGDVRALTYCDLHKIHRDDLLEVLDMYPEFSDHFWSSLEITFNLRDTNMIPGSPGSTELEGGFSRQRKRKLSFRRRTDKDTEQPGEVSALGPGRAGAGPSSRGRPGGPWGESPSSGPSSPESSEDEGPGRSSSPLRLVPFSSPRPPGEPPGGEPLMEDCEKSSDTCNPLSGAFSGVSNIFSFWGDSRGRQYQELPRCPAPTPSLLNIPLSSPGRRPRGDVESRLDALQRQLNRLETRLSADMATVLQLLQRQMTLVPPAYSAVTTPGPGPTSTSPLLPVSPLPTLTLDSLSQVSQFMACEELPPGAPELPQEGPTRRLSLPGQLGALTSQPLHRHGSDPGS
Voltage-gated inwardly rectifying potassium channel KCNH2, sequence (Q12809 whole entry): as above
Fibroblast growth factor receptor 3, sequence (P22607 whole entry, the tested form may be a part): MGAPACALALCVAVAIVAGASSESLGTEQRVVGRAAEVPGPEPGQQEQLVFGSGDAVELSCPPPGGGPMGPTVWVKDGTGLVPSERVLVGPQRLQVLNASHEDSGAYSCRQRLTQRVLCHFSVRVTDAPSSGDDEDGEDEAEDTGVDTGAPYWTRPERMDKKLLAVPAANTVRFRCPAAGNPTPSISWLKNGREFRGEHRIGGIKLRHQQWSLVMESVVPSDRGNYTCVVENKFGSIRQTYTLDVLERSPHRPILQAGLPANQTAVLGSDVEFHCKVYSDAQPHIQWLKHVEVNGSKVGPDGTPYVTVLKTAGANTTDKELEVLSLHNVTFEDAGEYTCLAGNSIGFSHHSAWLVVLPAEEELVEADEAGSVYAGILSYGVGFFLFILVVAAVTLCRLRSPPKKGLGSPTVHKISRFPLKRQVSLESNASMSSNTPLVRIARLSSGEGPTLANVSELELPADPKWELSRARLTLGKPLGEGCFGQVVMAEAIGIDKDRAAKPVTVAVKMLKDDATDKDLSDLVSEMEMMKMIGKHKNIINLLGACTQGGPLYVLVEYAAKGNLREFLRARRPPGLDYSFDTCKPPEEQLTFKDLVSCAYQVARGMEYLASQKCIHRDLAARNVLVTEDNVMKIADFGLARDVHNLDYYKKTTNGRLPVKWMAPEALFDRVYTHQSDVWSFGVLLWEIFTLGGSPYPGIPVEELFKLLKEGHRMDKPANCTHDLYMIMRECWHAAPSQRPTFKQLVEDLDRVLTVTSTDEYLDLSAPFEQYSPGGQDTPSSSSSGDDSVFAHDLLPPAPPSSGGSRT

COc1cc(OC)c(F)c(COc2cnc(Nc3ccc(N4CCC(N5CCN(C)CC5)CC4)c(C)c3)nc2)c1F
IC50 (NIH3T3): 20 nM
CLint scaled ([1]; liver microsomes): 58 mL/min/kg
Papp at 2 h [2]: 20.6 ×10⁻⁶ cm/s
logD ([3]; 1-octanol/phosphate buffer): 4.1

COc1cc(Nc2ncc(CCc3c(F)c(OC)cc(OC)c3F)cn2)ccc1N1CCC(N(C)C2CCN(C)CC2)CC1.Cl.Cl.Cl.Cl
IC50 (NIH3T3): 24 nM
IC50 [4]: > 1000 nM
CLint scaled ([1]; liver microsomes): 48 mL/min/kg
Papp at 2 h [2]: < 0.9 ×10⁻⁶ cm/s
logD ([3]; 1-octanol/phosphate buffer): 2.5

COc1cc(OC)c(F)c(COc2cnc(Nc3cnc(N4CCC(N5CCN(C)CC5)CC4)nc3)nc2)c1F
CLint scaled ([1]; liver microsomes): 39 mL/min/kg

COc1cc(OC)c(F)c(COc2cnc(Nc3cnn(CCN4CCNCC4)c3)nc2)c1F.Cl.Cl.Cl
IC50 (NIH3T3): 13 nM
IC50 [4]: 89000 nM
CLint scaled ([1]; liver microsomes): < 23 mL/min/kg
Papp at 2 h [2]: < 1.1 ×10⁻⁶ cm/s
logD ([3]; 1-octanol/phosphate buffer): 0.2
concentration at 6 h [5]: 305 nM

COc1cc(OC)c(F)c(COc2cnc(Nc3ccc(N4CCC(N5CCN(C)CC5)CC4)nc3)nc2)c1F
CLint scaled ([1]; liver microsomes): 34 mL/min/kg

COc1cc(Nc2ncc(CCc3c(F)c(OC)cc(OC)c3F)cn2)ccc1N1CCC(N2CCN(C)CC2)CC1
IC50 [4]: 10000 nM
CLint scaled ([1]; liver microsomes): 171 mL/min/kg

COc1cc(Nc2ncc(CCc3c(F)c(OC)cc(OC)c3F)cn2)ccc1N1CCN(C)CC1
IC50 (NIH3T3): 18 nM
CLint scaled ([1]; liver microsomes): 101 mL/min/kg
Papp at 2 h [2]: > 30 ×10⁻⁶ cm/s
logD ([3]; 1-octanol/phosphate buffer): 3

COc1cc(OC)c(F)c(COc2cnc(Nc3cnn(CCO)c3)n[14cH]2)c1F
Kp at 1 h [6]: 0.15
Kp at 4 h [7]: 0.2
Kp at 24 h [8]: 0.69

COc1cc(OC)c(F)c(COc2cnc(Nc3cnn(CCNC4CCN(C)CC4)c3)nc2)c1F.Cl.Cl.Cl
IC50 (NIH3T3): 32 nM
IC50 [4]: 83000 nM
CLint scaled ([1]; liver microsomes): < 23 mL/min/kg
Papp at 2 h [2]: < 1.4 ×10⁻⁶ cm/s
logD ([3]; 1-octanol/phosphate buffer): 0.7
concentration at 6 h [5]: 50.2 nM

CCOc1cc(Nc2ncc(OCc3c(F)c(OC)cc(OC)c3F)cn2)ccc1N1CCC(N2CCN(C)CC2)CC1
IC50 [4]: > 3000 nM
CLint scaled ([1]; liver microsomes): < 23 mL/min/kg
Papp at 2 h [2]: 16.8 ×10⁻⁶ cm/s
logD ([3]; 1-octanol/phosphate buffer): 3.8

COc1cc(Nc2ncc(OCc3c(F)c(OC)cc(OC)c3F)cn2)ccc1N1CCN(C)CC1
IC50 [4]: > 3000 nM
CLint scaled ([1]; liver microsomes): 39 mL/min/kg
Papp at 2 h [2]: 16.2 ×10⁻⁶ cm/s
logD ([3]; 1-octanol/phosphate buffer): 3

COc1cc(Nc2ncc(CCc3c(F)c(OC)cc(OC)c3F)cn2)ccc1N1CCN(C2CCN(C)CC2)CC1
CLint scaled ([1]; liver microsomes): 51 mL/min/kg

COc1cc(Nc2ncc(OCc3c(F)c(OC)cc(OC)c3F)cn2)cnc1N1CCC(N2CCN(C)CC2)CC1
CLint scaled ([1]; liver microsomes): 26 mL/min/kg

COc1cc(OC)c(F)c(COc2cnc(Nc3ccc(N4CCC(N5CCN(C)CC5)CC4)c(F)c3)nc2)c1F
IC50 [9]: < 1 nM
IC50 (NIH3T3): 5.5 nM
CLint scaled ([1]; liver microsomes): 42 mL/min/kg

COc1cc(Nc2ncc(OCc3c(F)c(OC)cc(OC)c3F)cn2)ccc1N1CCC(N2CCN(C)CC2)CC1
IC50 (NIH3T3): 13 nM
IC50 [4]: > 3000 nM
CLint scaled ([1]; liver microsomes): 40 mL/min/kg
Papp at 2 h [2]: 11.2 ×10⁻⁶ cm/s
logD ([3]; 1-octanol/phosphate buffer): 3.3
concentration at 6 h [5]: 2790 nM
inhibition in vivo at 30 mg/kg (animal or person): 67%

COc1cc(OC)c(F)c(COc2cnc(Nc3cnn(CCO)c3)nc2)c1F [ASP-5878]
Cmax [10]: 9020 ng/mL
AUC(0-inf) at 72 h [11]: 1260 ng·h/mL
inhibition at 13 min, 10 µM (hERG [12]): 9.1%
Tmax at 72 h (in vivo [13]): 3 h
Vd at 72 h [14]: 0.665 L/kg
IC50 (NIH3T3): 11 nM
Cmax at 72 h (in vivo [15]): 769 ng/mL
IC50 [4]: > 10000 nM
Tmax at 72 h (in vivo [16]): 1 h
Tmax at 24 h (in vivo [17]): 1 h
CLint scaled ([1]; microsomes): < 23 mL/min/kg
Tmax at 72 h (in vivo [18]): 4.5 h
Papp at 2 h [2]: 13.3 ×10⁻⁶ cm/s
Cmax at 24 h (in vivo [19]): 196 ng/mL
half-life at 24 h [20]: 1.7 h
inhibition at 13 min, 3 µM (hERG [21]): 9.1%
AUC [22]: 39600 ng·h/mL
logD ([3]; octanol/water): 2.3
inhibition at 13 min, 1 µM (hERG [23]): 7%
clearance at 72 h (in vivo [24]): 1.33 mL/min/kg
concentration at 6 h [5]: 1570 nM
Cmax [25]: 3540 ng/mL
half-life at 72 h [26]: 9.6 h
Vd at 24 h [27]: 0.671 L/kg
AUC(0-t) at 72 h (in vivo [28]): 111000 ng·h/mL
bioavailability at 24 h (in vivo [29]): 76.1%
clearance at 24 h (in vivo [30]): 5.82 mL/min/kg
AUC(0-inf) at 24 h [31]: 864 ng·h/mL
AUC(0-t) at 72 h (in vivo [32]): 5710 ng·h/mL
bioavailability at 72 h (in vivo [33]): 94.2%
Tmax at 72 h (in vivo [34]): 1.3 h
AUC(0-inf) at 72 h [35]: 1180 ng·h/mL
Cmax at 72 h (in vivo [36]): 119 ng/mL
AUC(0-inf) at 24 h [37]: 657 ng·h/mL
